The supplement of paper PMC10307832

Key:
Experiment in all cases: relative viability (nuclei count vs DMSO), 5 days (fraction); higher = more cells survive
BI-D1870 + Trametinib = compound: CC(C)CCN1c2nc(Nc3cc(F)c(O)c(F)c3)ncc2N(C)C(=O)C1C [BI-D1870] + CC(=O)Nc1cccc(-n2c(=O)n(C3CC3)c(=O)c3c(Nc4ccc(I)cc4F)n(C)c(=O)c(C)c32)c1 [Trametinib] (partner 0.02 µM)
Summary of the method: (§1)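 Values are medians from duplicate plates. Each reflects relative viability, defined as the nuclei count of treated wells over that of vehicle wells. Lung cancer cell lines in 1536-well plates were pin-tool dosed one day after seeding with one drug alone or with a fixed anchor-drug dose plus five library-drug doses (not always all listed) in √10 steps, then fixed, stained and imaged at 4× after 5 days.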

BI-D1870 + Alpelisib = compound: CC(C)CCN1c2nc(Nc3cc(F)c(O)c(F)c3)ncc2N(C)C(=O)C1C [BI-D1870] + Cc1nc(NC(=O)N2CCC[C@H]2C(N)=O)sc1-c1ccnc(C(C)(C)C(F)(F)F)c1 [Alpelisib] (partner 2 µM)
Summary of the method: as §1

BI-D1870 + Phenformin = compound: CC(C)CCN1c2nc(Nc3cc(F)c(O)c(F)c3)ncc2N(C)C(=O)C1C [BI-D1870] + N=C(N)NC(=N)NCCc1ccccc1 [Phenformin] (partner 250 µM)
Summary of the method: as §1

Zebularine + Vorinostat = compound: O=c1ncccn1[C@@H]1O[C@H](CO)[C@@H](O)[C@H]1O [Zebularine] + O=C(CCCCCCC(=O)Nc1ccccc1)NO [Vorinostat] (partner 1 µM)
Summary of the method: as §1

Row | Cell Line | relative viability (BI-D1870 + Trametinib; first compound 0.04 µM) | relative viability (BI-D1870 + Trametinib; first compound 0.1265 µM) | relative viability (BI-D1870 + Trametinib; first compound 0.4 µM) | relative viability (BI-D1870 + Trametinib; first compound 1.265 µM) | relative viability (BI-D1870 + Trametinib; first compound 4 µM) | relative viability (BI-D1870 + Alpelisib; first compound 0.04 µM) | relative viability (BI-D1870 + Alpelisib; first compound 0.1265 µM) | relative viability (BI-D1870 + Alpelisib; first compound 0.4 µM) | relative viability (BI-D1870 + Alpelisib; first compound 1.265 µM) | relative viability (BI-D1870 + Alpelisib; first compound 4 µM) | relative viability (BI-D1870 + Phenformin; first compound 0.04 µM) | relative viability (BI-D1870 + Phenformin; first compound 0.1265 µM) | relative viability (BI-D1870 + Phenformin; first compound 0.4 µM) | relative viability (BI-D1870 + Phenformin; first compound 1.265 µM) | relative viability (BI-D1870 + Phenformin; first compound 4 µM) | relative viability (Zebularine + Vorinostat; first compound 1 µM) | relative viability (Zebularine + Vorinostat; first compound 3.162 µM) | relative viability (Zebularine + Vorinostat; first compound 10 µM) | relative viability (Zebularine + Vorinostat; first compound 31.62 µM) | relative viability (Zebularine + Vorinostat; first compound 100 µM)
1 | NCI-H727 | 0.41 | 0.406 | 0.406 | 0.438 | 0.429 | 0.591 | 0.448 | 0.526 | 0.63 | 0.445 | 0.53 | 0.614 | 0.587 | 0.712 | 0.462 | 1.18 | 1.14 | 0.971 | 1.26 | 1.08
2 | NCI-H838 | 0.597 | 0.444 | 0.536 | 0.667 | 0.523 | 1.04 | 0.883 | 0.923 | 1.17 | 1.04 | 0.523 | 0.503 | 0.613 | 0.595 | 0.518 | 0.712 | 0.723 | 0.654 | 0.859 | 0.402
3 | NCI-H1355 | 0.455 | 0.361 | 0.448 | 0.418 | 0.454 | 0.848 | 0.768 | 0.804 | 0.884 | 0.716 | 0.494 | 0.418 | 0.44 | 0.46 | 0.38 | 0.692 | 0.585 | 0.479 | 0.544 | 0.372
4 | NCI-H1395 | 1.09 | 0.972 | 1.01 | 1.17 | 0.978 | 1.56 | 1.04 | 1.11 | 1.05 | 1.08 | 0.451 | 0.418 | 0.464 | 0.456 | 0.427 | 0.7 | 0.753 | 0.661 | 0.655 | 0.515
5 | NCI-H1437 | 0.556 | 0.475 | 0.494 | 0.568 | 0.398 | 1.1 | 0.964 | 0.911 | 0.993 | 0.754 | 0.279 | 0.255 | 0.309 | 0.332 | 0.27 | 1.02 | 0.899 | 0.727 | 0.911 | 0.55
6 | NCI-H1651 | 0.874 | 0.881 | 0.81 | 0.936 | 0.828 | 1.04 | 0.939 | 1 | 0.942 | 0.941 | 0.389 | 0.315 | 0.287 | 0.295 | 0.322 | 0.637 | 0.537 | 0.501 | 0.523 | 0.46
7 | NCI-H1666 | 0.847 | 0.798 | 0.801 | 0.882 | 0.878 | 0.77 | 0.767 | 0.987 | 1.14 | 0.816 | 0.572 | 0.521 | 0.592 | 0.58 | 0.537 | 1.01 | 1.02 | 0.752 | 1.09 | 0.939
8 | NCI-H1734 | 0.752 | 0.549 | 0.658 | 0.706 | 0.632 | 0.778 | 0.619 | 0.683 | 0.75 | 0.597 | 0.402 | 0.379 | 0.412 | 0.43 | 0.376 | 0.983 | 0.717 | 0.425 | 0.401 | 0.253
9 | NCI-H1755 | 0.758 | 0.774 | 0.74 | 0.831 | 0.739 | 0.973 | 0.852 | 0.983 | 0.968 | 0.869 | 0.651 | 0.62 | 0.647 | 0.688 | 0.573 | 0.809 | 0.892 | 0.614 | 1.11 | 0.648
10 | NCI-H1793 | 0.486 | 0.332 | 0.366 | 0.631 | 0.429 | 0.647 | 0.607 | 0.537 | 0.69 | 0.719 | 0.387 | 0.311 | 0.389 | 0.423 | 0.27 | 0.819 | 0.895 | 0.41 | 0.448 | 0.328
11 | NCI-H1915 | 0.332 | 0.27 | 0.27 | 0.254 | 0.249 | 1.03 | 1.07 | 1.03 | 1.06 | 1 | 0.376 | 0.358 | 0.378 | 0.305 | 0.291 | 0.538 | 0.53 | 0.412 | 0.607 | 0.585
12 | NCI-H1944 | 0.443 | 0.362 | 0.382 | 0.423 | 0.393 | 0.907 | 0.803 | 0.817 | 0.927 | 0.861 | 0.218 | 0.185 | 0.184 | 0.237 | 0.205 | 0.534 | 0.573 | 0.414 | 0.603 | 0.458
13 | NCI-H1975 | 0.373 | 0.285 | 0.339 | 0.365 | 0.289 | 0.646 | 0.572 | 0.518 | 0.55 | 0.34 | 0.4 | 0.37 | 0.422 | 0.426 | 0.313 | 0.731 | 0.728 | 0.465 | 0.556 | 0.321
14 | NCI-H1993 | 0.404 | 0.505 | 0.621 | 0.567 | 0.42 | 0.619 | 0.677 | 0.643 | 0.708 | 0.811 | 0.482 | 0.403 | 0.487 | 0.468 | 0.572 | 0.73 | 0.763 | 0.754 | 0.741 | 0.559
15 | NCI-H2009 | 0.299 | 0.221 | 0.248 | 0.289 | 0.198 | 1.28 | 1.13 | 1.21 | 0.995 | 0.885 | 0.546 | 0.457 | 0.456 | 0.329 | 0.222 | 0.728 | 0.679 | 0.625 | 0.63 | 0.241
16 | NCI-H2023 | 0.537 | 0.389 | 0.578 | 0.516 | 0.349 | 0.696 | 0.552 | 0.592 | 0.634 | 0.552 | 0.487 | 0.367 | 0.408 | 0.416 | 0.308 | 0.946 | 0.561 | 0.509 | 0.518 | 0.216
